The results in this text go back to PubChem BioAssay AID624326 (Sanford-Burnham Center for Chemical Genomics, 2012).

In this assay the target is Fatty acid synthase (Homo sapiens) (UniProt P49327). Briefly: inhibition of human FAS-TE enzyme activity – biochemical, kinetic fluorescence intensity, dose response (AID 624326). Conditions: recombinant FAS-TE, OMFH fluorogenic substrate.

pIC50: −log10 of the molar value. The source made the active and inactive calls.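 Rule for the calls: active = half-inhibitory concentration against fatty acid synthase thioesterase at or below 20 µM; inactive = the rest.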

Fatty acid synthase (Homo sapiens), sequence (P49327 whole entry, looked up): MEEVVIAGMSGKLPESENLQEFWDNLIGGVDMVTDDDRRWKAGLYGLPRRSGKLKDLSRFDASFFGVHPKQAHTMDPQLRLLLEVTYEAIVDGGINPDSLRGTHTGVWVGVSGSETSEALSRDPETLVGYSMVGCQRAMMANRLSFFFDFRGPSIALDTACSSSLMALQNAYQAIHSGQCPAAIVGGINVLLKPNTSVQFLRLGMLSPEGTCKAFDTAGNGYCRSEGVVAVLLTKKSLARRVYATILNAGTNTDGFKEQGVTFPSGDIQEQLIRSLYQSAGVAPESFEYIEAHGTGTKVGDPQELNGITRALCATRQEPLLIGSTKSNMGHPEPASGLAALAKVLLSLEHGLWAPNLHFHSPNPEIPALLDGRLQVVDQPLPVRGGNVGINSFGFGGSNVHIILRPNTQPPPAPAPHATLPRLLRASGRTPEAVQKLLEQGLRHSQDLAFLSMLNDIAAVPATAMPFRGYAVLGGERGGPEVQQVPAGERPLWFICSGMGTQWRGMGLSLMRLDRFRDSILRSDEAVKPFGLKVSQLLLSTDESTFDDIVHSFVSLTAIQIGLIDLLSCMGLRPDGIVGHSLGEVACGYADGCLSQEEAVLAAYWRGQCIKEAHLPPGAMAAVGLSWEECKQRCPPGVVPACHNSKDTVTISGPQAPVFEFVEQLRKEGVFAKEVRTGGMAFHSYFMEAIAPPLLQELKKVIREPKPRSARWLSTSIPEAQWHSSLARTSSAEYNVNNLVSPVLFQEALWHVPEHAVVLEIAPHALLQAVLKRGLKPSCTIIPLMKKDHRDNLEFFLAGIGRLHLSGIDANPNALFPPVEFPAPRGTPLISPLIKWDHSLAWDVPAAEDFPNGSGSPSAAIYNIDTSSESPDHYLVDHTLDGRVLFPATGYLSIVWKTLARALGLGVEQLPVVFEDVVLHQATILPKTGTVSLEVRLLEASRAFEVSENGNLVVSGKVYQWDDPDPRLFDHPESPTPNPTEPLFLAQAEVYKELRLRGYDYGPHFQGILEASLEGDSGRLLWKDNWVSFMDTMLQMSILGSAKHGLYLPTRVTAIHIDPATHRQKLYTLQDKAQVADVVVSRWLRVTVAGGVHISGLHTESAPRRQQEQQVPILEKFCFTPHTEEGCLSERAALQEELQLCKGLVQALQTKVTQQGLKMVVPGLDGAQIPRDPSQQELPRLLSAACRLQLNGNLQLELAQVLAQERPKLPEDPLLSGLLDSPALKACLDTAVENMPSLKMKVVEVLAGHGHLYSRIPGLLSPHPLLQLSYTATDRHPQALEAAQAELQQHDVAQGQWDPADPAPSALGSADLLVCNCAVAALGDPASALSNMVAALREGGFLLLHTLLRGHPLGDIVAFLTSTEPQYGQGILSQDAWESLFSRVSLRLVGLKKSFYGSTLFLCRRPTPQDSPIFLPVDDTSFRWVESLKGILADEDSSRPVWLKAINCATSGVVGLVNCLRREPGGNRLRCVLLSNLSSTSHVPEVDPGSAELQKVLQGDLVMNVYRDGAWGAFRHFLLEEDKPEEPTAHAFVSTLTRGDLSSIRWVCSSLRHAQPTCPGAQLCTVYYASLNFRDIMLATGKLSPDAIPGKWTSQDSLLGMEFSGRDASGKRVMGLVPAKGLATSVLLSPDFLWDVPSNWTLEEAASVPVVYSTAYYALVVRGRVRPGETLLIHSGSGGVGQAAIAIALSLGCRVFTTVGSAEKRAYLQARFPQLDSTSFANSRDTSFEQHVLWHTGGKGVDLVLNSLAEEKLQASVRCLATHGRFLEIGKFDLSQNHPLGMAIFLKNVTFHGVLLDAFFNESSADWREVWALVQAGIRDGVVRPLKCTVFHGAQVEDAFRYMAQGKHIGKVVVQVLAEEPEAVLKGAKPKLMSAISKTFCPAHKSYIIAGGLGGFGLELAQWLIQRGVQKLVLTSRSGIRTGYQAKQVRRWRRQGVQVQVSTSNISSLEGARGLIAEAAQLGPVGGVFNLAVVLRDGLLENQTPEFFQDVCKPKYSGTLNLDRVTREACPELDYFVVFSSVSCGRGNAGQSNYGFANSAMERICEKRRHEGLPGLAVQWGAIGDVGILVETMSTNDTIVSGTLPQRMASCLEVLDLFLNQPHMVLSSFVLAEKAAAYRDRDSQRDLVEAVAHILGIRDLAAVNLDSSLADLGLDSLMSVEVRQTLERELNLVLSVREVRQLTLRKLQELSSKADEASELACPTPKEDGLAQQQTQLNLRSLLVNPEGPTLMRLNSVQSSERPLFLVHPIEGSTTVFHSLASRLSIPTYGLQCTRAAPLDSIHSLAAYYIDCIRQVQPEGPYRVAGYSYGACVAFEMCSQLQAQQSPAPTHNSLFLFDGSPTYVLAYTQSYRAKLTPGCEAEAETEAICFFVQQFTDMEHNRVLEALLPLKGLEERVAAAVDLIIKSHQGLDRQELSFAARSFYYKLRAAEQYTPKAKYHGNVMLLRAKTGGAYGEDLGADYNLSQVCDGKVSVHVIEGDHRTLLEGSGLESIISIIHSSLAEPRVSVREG

Take `CCC(C)(C)C1CCC(=NNS(=O)(=O)c2ccc(C)c([N+](=O)[O-])c2)CC1` (configuration not stated): the IC50 result was “inactive”. Usually pIC50 stands for the negative decadic logarithm of the IC50, by convention in mol/L. As for `CCCCC(=O)Nc1nc(-c2ccc(S(=O)(=O)N3CCOCC3)cc2)cs1`, the pIC50 was 6.69.
